Tests used:
[1] = system: breast cancer in mice; settings: orthotopic breast cancer, versus unconjugated paclitaxel; cited from earlier work
[2] = system: NT4 binding to membrane receptors on PANC-1 cells; experiment: Flow cytometry, inhibition of NT4 binding to PANC-1 cells by GAGs; format: cell-based, human; settings: 1 μM biotinylated NT4, 100 μg/ml GAGs, PBS with 5 mM EDTA and 0.5% BSA, Streptavidin-FITC
[3] = system: NT4 binding to PgsA-745 cells; experiment: Flow cytometry, inhibition of NT4 binding to PgsA-745 cells by heparin; format: cell-based, Chinese hamster; settings: 1 μM biotinylated NT4, 100 μg/ml heparin
Description: PANC-1 human pancreas adenocarcinoma, CHO-K1 Chinese hamster ovary cell and PgsA-745 Chinese hamster ovary cell mutant deficient in xylosyltransferase (UDP-D-xylose: serine-1,3-D-xylosyltransferase) were grown in DMEM Medium (for PANC-1 and CHO-K1) and F12 K Medium supplemented with 10% fetal bovine serum, 200 μg/ml glutamine, 100 μg/ml streptomycin and 60 μg/ml penicillin. Cell lines were purchased from ATCC (The Global Bioresource Center).
All experiments were performed using 1 × 10^5 PANC-1, CHO-K1 or PgsA-745 cells in 96-well U-bottom plates. […] Cells were finally incubated with 1 μg/ml Streptavidin-FITC. All dilutions were performed in PBS, containing 5 mM EDTA and 0.5% BSA.
10000 events were analyzed in a BD FACS Calibur (Becton Dickinson, NJ USA). Results were analyzed by FCS Express 4 Plus software.

[4] = system: NT4 binding to endocytic receptors; design: method as in PMID 23713525; settings: cited from earlier work
[5] = system: cancer cell lines and human cancer surgical samples; design: method as in 2 sources, one per row (each row's own in cited_ref): ref 1-6 = [1]; PMID 17766836; doi:10.1158/1535-7163.MCT-07-0164; Falciani C. et al. Synthesis and biological activity of stable branched neurotensin peptides for tumor targeting . Mol. Cancer Ther. 6 , 2441 − 2448 ( 2007 ). 17766836 10.1158/1535-7163.MCT-07-0164 || [2]; PMID 20222099; doi:10.1002/cmdc.200900527; Falciani C. et al. Design and in vitro evaluation of branched peptide conjugates: turning nonspecific cytotoxic drugs into tumor-selective agents . ChemMedChem. 5 , 567 − 574 ( 2010 ). 20222099 10.100 || [3]; PMID 20578987; doi:10.2174/156800910793605875; Falciani C. et al. Modular branched neurotensin peptides for tumor target tracing and receptor-mediated therapy: a proof-of-concept . Curr. Cancer Drug Targets. 10 , 695 − 704 ( 2010 ). 20578987 10.21 || [4]; PMID 21370475; doi:10.1002/cmdc.201000463; Falciani C. et al. Target-selective drug delivery through liposomes labeled with oligobranched neurotensin peptides . ChemMedChem. 6 , 678 − 685 ( 2011 ). 21370475 10.1002/cmdc.201000463 || [5]; PMID 25984525; doi:10.1155/2015/173507; Brunetti J. et al. Neurotensin branched Peptide as a tumor-targeting agent for human bladder cancer . Biomed Res Int. 2015 , 173507 , doi: 10.1155/2015/173507 ( 2015 ). 25984525 PMC4423026 ||| ref 7 = [7]; PMID 23713525; doi:10.1021/jm400329p; Falciani C. et al. Cancer selectivity of tetrabranched neurotensin peptides is generated by simultaneous binding to sulfated glycosaminoglycans and protein receptors . J Med Chem. 56 , 5009 – 18 ( 201); settings: compared with NT4; cited from earlier work

## CC(=O)O[C@H]1C(=O)[C@@]2(C)[C@H]([C@H](OC(=O)c3ccccc3)[C@]3(O)C[C@H](OC(=O)[C@H](O)[C@@H](NC(=O)c4ccccc4)c4ccccc4)C(C)=C1C3(C)C)[C@]1(OC(C)=O)CO[C@@H]1C[C@@H]2O [unconjugated paclitaxel, paclitaxel]
[1]
  tumor regression: not achieved with unconjugated paclitaxel

## heparin
[2]
  inhibition of NT4 binding (in words): complete inhibition
[3]
  inhibition of NT4 binding to PgsA-745 cells: still completely inhibited by heparin
[4]
  inhibition of NT4 binding to endocytic receptors: completely inhibited by heparin

## hyaluronic acid
[2]
  inhibition of NT4 binding (in words): neither binding to NT4 or inhibition of NT4 binding to cancer cell membranes was detected

## native neurotensin: monomeric native neurotensin
[5]
  high cancer selectivity: not shared by monomeric native neurotensin

Reference: paper PMC4891694, “Insights into the role of sulfated glycans in cancer cell adhesion and migration through use of branched peptide probe” (Scientific Reports, 2016)
